Assay results published in patent publication US8552013B2, “Heterocyclic compounds based on N6-substituted adenine, methods of their preparation, their use for preparation of drugs, cosmetic preparations and growth regulators, pharmaceutical preparations, cosmetic preparations and growth regulators containing these compounds” (USTAV Experimentalni Botaniky Akademie Ved Ceske Republiky, priority 2001, dated 2013).

How the values were obtained:
[1] = test system: Rosa hybrida (pot rose cultivar) explants; assay: In vitro and post vitro shoot multiplication and rooting of rose; format: in vivo; settings: for Root number per plant / Total root length per plant: Ex vitro, four weeks of acclimatising; for Flower number per explant / Number of new shoots per explant / Root number per explant / Total root length per explant: In vitro, 10 μM, 8 weeks
Protocol: The aim of this experiment was to test whether the new compounds are of practical use in tissue culture practice. The multiplication rate was investigated and the post vitro effects on rooting were examined. Rosa hybrida (pot rose cultivar) was cultured in 350 ml vessels with a screw on polycarbonate lid. Each culture vessel contained 100 ml autoclaved medium (120° C., 20 min). The cultures were maintained at 23±2° C. under a 16 h photoperiod at 40 μM m^−2 s^−1 PAR. The basal medium (BMR) contained Murashige and Skoog (1962) macroelements, microelements and vitamins, 95 μM NaFeEDTA, 555 μM myo-inositol, 111 mM sucrose, 1.332 mM glycine, 684 μM L-glutamine and 7 g/l agar. This medium was supplemented with 10 μM BA, mT, oMeOBAP or mMeOBAP (compound no. 14 and 15, respectively). The control medium didn't contain any cytokinin. After a culture period of 8 weeks, the number of induced shoots per explant was determined, as well as root number/explant and total root length/explant. The roots were removed and the explants (shoot clusters) were planted in unfertilised peat. After four weeks of acclimatising in a fog unit, root number and root length was determined.

[2] = test system: Rosa hybrida 'Pailin' explants; assay: Early shoot senescence of tissue cultured roses; format: in vivo; settings: for relative number of dead plants in relation to culture time: 10 μM in medium
Protocol: Rosa hybrida ‘Pailin’ (a cut rose) was cultured in 350 ml vessels with a screw on polycarbonate lid. Each culture vessel contained 100 ml autoclaved medium (120° C., 20 min). The cultures were maintained at 23±2° C. under a 16 h photoperiod at 40 μM m^−2 s^−1 PAR. The basal medium (BMR) contained Murashige and Skoog (1962) macroelements, microelements and vitamins, 36.7 mg/l NaFeEDTA, 50 mg/l NaFeEDDHA, 100 mg/l […] myo-inositol, 30 g/l sucrose, 100 mg/l glycine, 50 mg/l calcium pantothenate, 100 mg/l L-glutamine and 7 g/l agar-agar. This medium was supplemented with 10 μM BA, mT and mMeOBAP. The last 2 cytokinins were filter sterilised and added after autoclaving the medium in the vessels. The control medium didn't contain any cytokinin. After a culture period of 6 weeks, scoring senescence symptoms was started.

[3] = test system: human adult skin fibroblasts; assay: Short-term growth of human skin fibroblasts (cell counts, Giemsa); format: cell-based; settings: for Cell growth versus untreated: 40 μM and 80 μM; for Cell proliferation (summary): all concentrations (40, 80, 200 and 500 μM); for appearance of dermal cells (summary): all doses 40, 80, 200 and 500 μM; for Cellular growth at higher concentrations: para 200 to 500 μM after 11 days, ortho 200 and 400 μM after 7 days, meta 400 μM
Protocol: (§1) All experiments were performed on early and mid passage cultures (about 20 to 40% lifespan completed) of normal human adult skin fibroblast line; designated ASF-2 & Senetek cell line (about 10-90% lifespan completed); designated as SF20. In order to check the effects of test compounds on senescent cells, late passage cells with more than 95% lifespan completed were used. ASF-2 and SF20 cell lines were established from a mammary skin biopsy obtained from a young, non-smoking and healthy […] at the time of breast reduction operation. Normal culture conditions of medium (DMEM) containing antibiotics, 10% foetal calf serum, and incubation at 37° C. with 95% humidity were used. The effects of the test chemicals were determined in the following conditions:
Short-term growth experiments were performed using 24-well tissue culture plates (growth area 1.9 cm^2). Freshly prepared cell suspensions from mass cultures of ASF-2 cells maintained in our labs were used. About 10,000 cells were seeded into 6 sets of 24-well plates. The cells were allowed to attach and stabilize for 24 hr in normal culture medium to achieve various final concentrations (range 40 to 500 μM). Culture medium was changed with the addition of test chemicals twice a week. The numbers of cells were counted after different days of treatment in 2 wells from each concentration of the test chemical, by following the normal method of cell trypsinization and counting using a Coultercounter. The third well in each category was fixed by cold methanol and stained with Giemsa stain for permanent record and for photography. The experiment was carried on for until the cultures became fully confluent and no further growth was possible.

[4] = test system: human skin fibroblasts; assay: Cell survival, MTT assay; format: cell-based; settings: 3 days
Protocol: Cell survival after exposure to various doses was measured with the 3-(4,5 dimethylthiazol-2-yl)-2,5-diphenyltetrazolium bromide (MTT) assay. About 5,000 cells were seeded per well in a 96-well plate 24 h before the experiment. Cells were then treated with various doses of the compound to be tested. The wells were washed in Hank's and new medium was added. After three days, MTT (Sigma, M2128) was added at 0.5 mg/ml in medium. After 4 h, MTT was removed and isopropanol and HCl were added to dissolve the MTT crystals for 12-16 h. The absorbance at 595 nm was measured.

[5] = test system: proteasome; assay: Proteasomal chymotrypsin-like activity in cell extracts of treated cells; format: cell-based, human; settings: 40, 80 and 200 μM
Protocol: Chymotrypsin-like activity in cell extracts prepared from treated and untreated cells was determined by in vitro degradation of oligopeptides by the proteasome.

[6] = test system: senescent human skin fibroblasts; assay: Actin staining of senescent cells (FITC-Phalloidin); format: cell-based; settings: after 3 days; meta 40 μM
Excerpt: Actin staining: The pattern of cytoskeletal actin staining was studied by staining the cells with florescent ligand FITC-labelled Phalloidin, using a fluorescence microscope

[7] = test system: senescent human skin fibroblasts; assay: Numbers of surviving senescent cells (Coulter counter); format: cell-based; settings: 7 to 14 days of treatment
Protocol: Equal numbers of senescent cells were seeded in separate flasks and were treated with different concentrations of para-topolin. Cell numbers were determined by using a Coulter counter after trpsinization and resuspension of cells after 7 and 14 days of treatment.
Equal numbers of senescent cells were seeded in separate flasks and were treated with different concentrations of ortho-topolin. Cell numbers were determined by using a Coulter counter after trypsinisation and resuspension of cells, after 7 and 14 days of treatment.

[8] = test system: human skin fibroblasts; assay: Apoptosis assay in treated skin fibroblasts; format: cell-based; settings: 3 days of treatment; ortho 200 μM
[9] = test system: human skin fibroblasts; assay: Series of experiments on short-term effects on human skin fibroblasts, conclusion; format: cell-based; settings: para at a dose of 40 μM
Protocol: as §1
The experiments were performed to determine the effects of short-term treatment of ortho-topolin, meta-topolin, and para-topolin on cell attachment, survival, growth, apoptosis, actin cytoskeletal pattern, lysosomal activity, proteasomal activity and morphology of human skin fibroblasts in culture.

| SMILES | Root number per plant [1] | Total root length per plant [1] [cm] | Flower number per explant [1] | Number of new shoots per explant [1] | Root number per explant [1] | Total root length per explant [1] [cm] | relative number of dead plants in relation to culture time [2] | Cell growth versus untreated [3] | Cell proliferation (summary) [3] | appearance of dermal cells (summary) [3] | Cellular growth at higher concentrations [3] | proteasomal activity (chymotrypsin-like), removal of oxidized and abnormal proteins [5] | actin staining pattern in senescent cells [6] | numbers of surviving senescent cells [7] | apoptosis assay [8] | conclusion on short-term effects on human skin fibroblasts [9] | further results |
| --- | --- | --- | --- | --- | --- | --- | --- | --- | --- | --- | --- | --- | --- | --- | --- | --- | --- |
| COc1cccc(CNc2ncnc3nc[nH]c23)c1 [6-(3-methoxybenzylamino)purine] | 1.7 | 4.1 | 0.03 | 4.3 | 0.0 | 0.0 | the situation improved | – | – | – | – | – | – | – | – | – | plants alive ([2]; 10 μM, after 121 days): almost all plants were still alive |
| Oc1cccc(CNc2ncnc3nc[nH]c23)c1 [meta-topolin, 6-(3-hydroxybenzylamino)purine] | 1.4 | 3.8 | 0.16 | 2.1 | 0.0 | 0.0 | the situation improved | almost similar | declined to a significant extent | morbid in appearance | almost no growth | failed to show such an effect | depolymerised actin filaments to some extent | reduces the number of surviving senescent cells in a dose dependent manner | cell death at 40 μM and above | little or no beneficial effects | rate of growth ([3]; 200 μM): slowed down; cells that did survive treatment [4]: 60%; cells killed ([4]; between 0.01 and 1 μM): about 40% |
| Oc1ccccc1CNc1ncnc2nc[nH]c12 [ortho-topolin, 6-(2-hydroxybenzylamino)purine] | – | – | – | – | – | – | – | almost similar | declined to a significant extent | morbid in appearance | almost a total inhibition | failed to show such an effect | no obvious differences | reduces the number of surviving senescent cells significantly | some induction of apoptosis | little or no beneficial effects | reduction in cell survival ([4]; 200-500 μM): 10-20%; dose until which not cytotoxic / no toxic effect on survival (MTT) ([4]; range 0.01-500 μM): 100 µM |
